Where two headings read alike, the source gives them in different places. Marks after values point to notes of the source that are not given here. Values belong to the compound of their own block, whether it stands above or below them.
Tests used:
PI3Kα = PI3Kα (Homo sapiens (Human), UniProt P42336); assay: PI3Kα kinase (biochemical) assay
ERK phosphorylation = settings: cited from earlier work
[1] = test system: B16F10 melanoma lung metastases; settings: FiDOX 1, 5 and 30 mg/kg; free doxorubicin 6 mg/kg; cited from earlier work
PI3K = PI3K cellular assays; assay type: cell-based; design: key: Inactive (−); Low (+); Intermediate (++); High (+++); settings: for PI3K cellular activity: Table 1
[2] = Fucoidan nanoparticle formulation, drug load and particle size; assay type: physicochemical; settings: Table 1
Description: FIG. 13. Generation of Compound (14) Nanoparticles [Fi(Compound (14))]. An aliquot of 0.1 mL of Compound (14) dissolved in dimethyl sulfoxide (25 mg/mL) was added drop-wise ([…]) to a 0.6 mL aqueous polysaccharide solution (15 mg/mL) containing IR820 (2.5 mg/mL) and 0.05 mM sodium bicarbonate. An aliquot of 0.1 mL of 8-arm PEG-amine dissolved in water (Creative Peg Works, 20 kD, 5 mg/mL) was added drop-wise to the mixture followed by centrifugation (20,000 g, 30 min). The nanoparticle pellet was re-suspended in 1 mL of sterile PBS. The suspension was sonicated for 10 s with a probe tip ultrasonicator at 40% intensity (Sonics inc). The nanoparticles were lyophilized in a 5% saline/sucrose solution.
Nanoformulated Compound (14) [Fi(Compound (14))] was typically prepared as illustrated in FIG. 13 by adding a DMSO solution dropwise to an aqueous polysaccharide solution containing the near-IR dye IR820. This was followed by the addition of an aqueous solution containing 20 kD, 8-arm PEG-amine, centrifugation and ultra-sonication yielding nanoparticles (<200 nm) with good batch consistency (FIG. 14). […]
Importantly, each of these 3 new derivatives shown in Table 8 were successfully encapsulated in fucoidan polysaccharide nanoparticles. Following nanoformulation, the drug loading in the nanoparticle for each analog was determined.

[3] = Mouse pharmacokinetics, cassette dosed free drug; assay type: in vivo; settings: for MRTiv / BA / MRTpo / Tmax / AUC / concentration at 5 min / clearance / Vd / Cmax: cassette; for concentration at 5 min: read-out: C5min; for clearance: read-out: Cltotal (converted); for Vd: read-out: VDss
From the text: (§1) Mouse PK data for Compound (14) (cassette dosing) for free drug (i.e., not nanoformulated) is tabulated in Table 2 using amorphous material. […] The corresponding rat PK data is tabulated in Table 3, where the results are consistent with mouse PK data.

[4] = rat, BYL719 dose 3.4 mg/kg IV, cited from earlier work
[5] = cited from earlier work
[6] = test system: S6 ribosomal protein (S6) phosphorylation; settings: single administration; free BYL719 oral, Fi(BYL719) 25 mg/kg; up to 24 hours; cited from earlier work
Cal-33 xenografts = settings: Fi(BYL719) 25 mg/kg twice a week; free BYL719 7 mg/kg/day (50 mg/kg/week); cited from earlier work
[7] = test system: H22 patient-derived xenografts; settings: Fi(BYL719) 25 mg/kg twice a week; free BYL719 7 mg/kg/day (50 mg/kg/week); cited from earlier work
[8] = healthy mice, single dose, BYL719 25 or 50 mg/kg, Fi(BYL719) 25 mg/kg, cited from earlier work
[9] = 60 consecutive days; BYL719 50 mg/kg/day, Fi(BYL719) 50 mg/kg/week; cited from earlier work
[10] = Rat pharmacokinetics, cassette dosed free Compound (14); assay type: in vivo
From the text: as §1

[11] = Table 4, pyridine-modified inhibitors, read-out: PI3Kα (IC50)
[12] = Table 6, proline-modified inhibitors, read-out: PI3Kα (IC50)
[13] = Table 5, pyrone inhibitors, read-out: PI3Kα (IC50)
[14] = IV 0.1 mg/kg, 1 mL/kg (10-in-One)
[15] = in vivo, IV 0.1 mg/kg, 1 mL/kg (10-in-One), read-out: AUCiv
[16] = in vivo, IV 0.1 mg/kg, 1 mL/kg (10-in-One)
[17] = in vivo, PO 1 mg/kg, 5 mL/kg (5-in-One)
[18] = in vivo, PO 1 mg/kg, 5 mL/kg (5-in-One), read-out: AUCpo

PI3Kα, sequence (P42336 whole entry): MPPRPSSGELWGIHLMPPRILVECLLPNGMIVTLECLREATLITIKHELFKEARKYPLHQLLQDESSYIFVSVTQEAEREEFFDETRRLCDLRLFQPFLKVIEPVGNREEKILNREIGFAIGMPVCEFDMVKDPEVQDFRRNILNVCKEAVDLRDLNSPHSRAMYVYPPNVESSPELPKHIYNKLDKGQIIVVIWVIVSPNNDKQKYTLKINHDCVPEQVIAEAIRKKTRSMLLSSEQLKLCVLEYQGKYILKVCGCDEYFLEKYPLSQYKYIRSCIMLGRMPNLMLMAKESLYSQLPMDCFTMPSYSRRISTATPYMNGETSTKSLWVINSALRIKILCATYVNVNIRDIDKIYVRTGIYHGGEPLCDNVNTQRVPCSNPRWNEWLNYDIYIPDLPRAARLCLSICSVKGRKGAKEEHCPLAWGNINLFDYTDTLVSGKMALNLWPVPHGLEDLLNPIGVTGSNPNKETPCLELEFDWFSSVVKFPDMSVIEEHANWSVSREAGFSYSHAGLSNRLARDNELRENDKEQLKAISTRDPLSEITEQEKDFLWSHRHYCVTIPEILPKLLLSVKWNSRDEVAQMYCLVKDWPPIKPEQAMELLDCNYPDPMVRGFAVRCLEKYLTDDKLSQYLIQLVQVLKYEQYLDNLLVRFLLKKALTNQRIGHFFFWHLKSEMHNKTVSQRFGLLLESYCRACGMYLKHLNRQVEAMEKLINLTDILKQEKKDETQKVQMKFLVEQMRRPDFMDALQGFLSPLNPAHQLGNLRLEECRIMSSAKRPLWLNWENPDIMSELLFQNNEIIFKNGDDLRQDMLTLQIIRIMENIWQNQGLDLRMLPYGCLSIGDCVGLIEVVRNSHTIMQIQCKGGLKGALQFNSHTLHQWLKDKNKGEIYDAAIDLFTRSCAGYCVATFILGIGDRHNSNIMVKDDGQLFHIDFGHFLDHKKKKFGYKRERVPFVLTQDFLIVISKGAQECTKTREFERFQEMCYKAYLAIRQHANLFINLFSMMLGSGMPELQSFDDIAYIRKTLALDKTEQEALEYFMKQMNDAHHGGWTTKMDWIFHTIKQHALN
PI3Kα, sequence (P27986 whole entry partner): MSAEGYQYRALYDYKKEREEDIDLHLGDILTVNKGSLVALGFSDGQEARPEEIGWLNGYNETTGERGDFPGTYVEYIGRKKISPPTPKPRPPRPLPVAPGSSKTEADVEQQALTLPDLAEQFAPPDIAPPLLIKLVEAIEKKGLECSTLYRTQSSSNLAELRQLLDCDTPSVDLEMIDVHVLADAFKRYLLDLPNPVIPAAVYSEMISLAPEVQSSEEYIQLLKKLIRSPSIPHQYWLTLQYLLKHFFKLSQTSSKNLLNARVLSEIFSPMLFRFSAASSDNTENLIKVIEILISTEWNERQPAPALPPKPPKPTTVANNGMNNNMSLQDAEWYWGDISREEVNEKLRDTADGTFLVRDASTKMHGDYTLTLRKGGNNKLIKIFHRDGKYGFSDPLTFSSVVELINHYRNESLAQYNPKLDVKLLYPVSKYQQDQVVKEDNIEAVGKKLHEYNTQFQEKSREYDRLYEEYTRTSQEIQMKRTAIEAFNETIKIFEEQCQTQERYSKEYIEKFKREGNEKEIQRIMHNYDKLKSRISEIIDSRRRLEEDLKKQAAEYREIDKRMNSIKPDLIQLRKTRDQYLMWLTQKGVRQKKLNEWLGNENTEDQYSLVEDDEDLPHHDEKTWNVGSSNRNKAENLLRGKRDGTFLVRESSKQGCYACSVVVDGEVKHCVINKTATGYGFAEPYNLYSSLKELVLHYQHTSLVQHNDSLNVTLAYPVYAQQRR

SMILES: CCOC(=O)CC(C)(C)c1cc(-c2sc(NC(=O)N3CCC[C@H]3C(N)=O)nc2C)ccn1 [Compound (2)]
- IC50 (PI3Kα; [11]): < 100 nM

SMILES: Cn1cnc2c(F)c(Nc3ccc(Br)cc3F)c(C(=O)NOCCO)cc21 [MEK162]
- pERK inhibition in the skin (ERK phosphorylation; 4 and 24 hours): phosphorylation returned in both tissues after 24 hours
- pERK inhibition in the tumor (ERK phosphorylation; after 24 hours): phosphorylation returned in both tissues after 24 hours

SMILES: Cc1nc(NC(=O)N2CCC[C@H]2C(N)=O)sc1-c1ccnc(C(C)(C)C(=O)OC(C)OC(=O)OC2CCCCC2)c1 (some centres unmarked) [Compound (3)]
- IC50 (PI3Kα; [11]): < 100 nM

SMILES: CCOC(=O)C(C)c1cc(-c2sc(NC(=O)N3CCC[C@H]3C(N)=O)nc2C)ccn1 (mixture of isomers) [Compound (6)]
- IC50 (PI3Kα; [11]): < 100 nM

SMILES: COc1cccc2c1C(=O)c1c(O)c3c(c(O)c1C2=O)C[C@@](O)(C(=O)CO)C[C@@H]3O[C@H]1C[C@H](N)[C@H](O)[C@H](C)O1 [doxorubicin]
- tumor burden and survival after a single injection [1]: did not have a significant effect

SMILES: Cc1nc(NC(=O)N2CCC[C@H]2C(N)=O)sc1-c1ccnc(C(C)(C)C(=O)O)c1 [Compound (7)]
- IC50 (PI3Kα; [11]): < 100 nM

SMILES: Cc1nc(NC(=O)N2CCC[C@H]2C(N)=O)sc1-c1ccnc(C(C)(C)C(=O)OC2CCOC2=O)c1 (some centres unmarked) [Compound (1)]
- IC50 (PI3Kα; [11]): < 100 nM

SMILES: COC(=O)C(C)(C)c1cc(-c2sc(NC(=O)N3CCC[C@H]3C(N)=O)nc2C)ccn1 [Compound (8)]
- IC50 (PI3Kα; [11]): < 100 nM

SMILES: Cc1nc(NC(=O)N2CCC[C@H]2C(N)=O)sc1-c1ccnc(C(C)(C)C(F)(F)F)c1 [BYL719, alpelisib, reference compound]
- PI3K cellular activity (PI3K): (+++)***
- Nanoparticle drug load, % [2]: 22%
- MRTiv [3, 14]: 67.2 min
- BA ([3]; IV 0.1 mg/kg, PO 1 mg/kg): 71.2%
- MRTpo ([3]; PO 1 mg/kg, 5 mL/kg (5-in-One)): 2.12 h
- Tmax ([3]; PO 1 mg/kg, 5 mL/kg (5-in-One)): 60 min
- AUC [3, 15]: 73.9 ng·h/mL
- concentration at 5 min [3, 16]: 56.4 ng/mL
- clearance [3, 16]: 22.9 mL/min/kg
- Vd [3, 16]: 1.54 L/kg
- Cmax [3, 17]: 184 ng/mL
- AUC [3, 18]: 526 ng·h/mL
- BA ([4]; 15 mg/kg PO): 58%
- Cltotal [4]: 600 mL/h/kg
- MRTiv [4]: 2.9 h
- VDss [4]: 1900 mL/kg
- observed half-life in humans [5]: 11.5 h
- inhibition of S6 phosphorylation in tumor [6]: strong albeit transient inhibition
- antitumor activity in Cal-33 (Cal-33 xenografts): no appreciable antitumor activity
- antitumor activity in H22 [7]: transient delay of tumor growth followed by acquired insensitivity to the treatment
- serum glucose levels [8]: spike
- serum insulin levels ([8]; within 24 hours): spike
- serum glucose and insulin levels after chronic treatment [9]: Significantly elevated

SMILES: Cc1nc(NC(=O)N2CCC[C@H]2C(N)=O)sc1-c1ccnc(C(C)(C)C(=O)OCc2oc(=O)oc2C)c1 [Compound (4)]
- IC50 (PI3Kα; [11]): < 100 nM

SMILES: CCOC(=O)C1(c2cc(-c3sc(NC(=O)N4CCC[C@H]4C(N)=O)nc3C)ccn2)CC1 [Compound (5)]
- IC50 (PI3Kα; [11]): < 100 nM

Second part, led by results:

- PI3Kα inhibition in biochemical assay (in words) (PI3Kα): good intrinsic PI3Kα potency
- IC50 (PI3Kα; [12]): < 100 nM
SMILES: CCOC(=O)C1CC(C(N)=O)N(C(=O)Nc2nc(C)c(-c3ccnc(C(C)(C)C(F)(F)F)c3)s2)C1 (centres unmarked) [Compound (21)]

- PI3Kα inhibition in biochemical assay (in words) (PI3Kα): good intrinsic PI3Kα potency
- IC50 (PI3Kα; [12]): < 100 nM
SMILES: CCOC(=O)[C@@H]1CCN(C(=O)Nc2nc(C)c(-c3ccnc(C(C)(C)C(F)(F)F)c3)s2)[C@@H]1C(N)=O [Compound (20)]

- PI3Kα inhibition in biochemical assay (in words) (PI3Kα): active
- IC50 (PI3Kα; [13]): < 100 nM
SMILES: CCOC(=O)[C@H]1C[C@@H](C(N)=O)N(C(=O)Nc2nc(C)c(-c3cc(C(C)(C)C(F)(F)F)oc(=O)c3)s2)C1 [Compound (12)]

- PI3Kα inhibition in biochemical assay (in words) (PI3Kα): active
- IC50 (PI3Kα; [13]): < 100 nM
SMILES: CCOC(=O)[C@@H]1C[C@@H](C(N)=O)N(C(=O)Nc2nc(C)c(-c3cc(C(C)(C)C(F)(F)F)oc(=O)c3)s2)C1 [Compound (11)]

- IC50 (PI3Kα; [13]): < 100 nM
SMILES: Cc1nc(NC(=O)N2CCC[C@H]2C(N)=O)sc1-c1cc(C(C)C)oc(=O)c1 [Compound (13)]

- IC50 (PI3Kα; [11]): < 100 nM
SMILES: COC(=O)c1cc(-c2sc(NC(=O)N3CCC[C@H]3C(N)=O)nc2C)ccn1 [Compound (9)]

- PI3Kα inhibition in biochemical assay (in words) (PI3Kα): active
- IC50 (PI3Kα; [13]): < 100 nM
SMILES: CCOC(=O)[C@@H]1CCN(C(=O)Nc2nc(C)c(-c3cc(C(C)(C)C(F)(F)F)oc(=O)c3)s2)[C@@H]1C(N)=O [Compound (10)]

- PI3Kα inhibition in biochemical assay (in words) (PI3Kα): potent inhibitor
- IC50 (PI3Kα; Table 1, read-out: PI3Kα (IC50)): < 100 nM
- IC50 (PI3Kα; [13]): < 100 nM
- IC50 (PI3Kα; refers to Table 5, read-out: PI3Kα inhibitor in biochemical assays): < 100 nM
- Nanoparticle drug load, % [2]: 22%
- mean residence time (in words) ([3]; cassette dosing, free drug): short mean residence time
- oral bioavailability (in words) ([3]; cassette dosing, free drug): modest oral bioavailability
- total clearance (in words) ([3]; cassette dosing, free drug): high total clearance
- MRTiv [3, 14]: 18.6 min
- BA ([3]; IV 0.1 mg/kg, PO 1 mg/kg): 13.5%
- MRTpo ([3]; PO 1 mg/kg, 5 mL/kg (5-in-One)): 1.07 h
- AUC [3, 15]: 17.8 ng·h/mL
- concentration at 5 min [3, 16]: 66.4 ng/mL
- clearance [3, 16]: 96.5 mL/min/kg
- Vd [3, 16]: 1.78 L/kg
- Cmax [3, 17]: 17.1 ng/mL
- AUC [3, 18]: 24 ng·h/mL
- Tmax ([3]; in vivo, PO 1 mg/kg, 5 mL/kg (5-in-One), read-out: Tmax): 25.2 min
- MRTiv [10, 14]: 25.2 min
- BA ([10]; IV 0.1 mg/kg, PO 1 mg/kg): 5.9%
- MRTpo ([10]; PO 1 mg/kg, 5 mL/kg (5-in-One)): 2.1 h
- AUC [10, 15]: 45.1 ng·h/mL
- concentration at 5 min ([10]; in vivo, IV 0.1 mg/kg, 1 mL/kg (10-in-One), read-out: C5min): 114 ng/mL
- clearance ([10]; in vivo, IV 0.1 mg/kg, 1 mL/kg (10-in-One), read-out: Cltotal (converted)): 37 mL/min/kg
- Vd ([10]; in vivo, IV 0.1 mg/kg, 1 mL/kg (10-in-One), read-out: VDss): 0.932 L/kg
- Cmax [10, 17]: 11.8 ng/mL
- Tmax [10, 17]: 30 min
- AUC [10, 18]: 26.9 ng·h/mL
SMILES: Cc1nc(NC(=O)N2CCC[C@H]2C(N)=O)sc1-c1cc(C(C)(C)C(F)(F)F)oc(=O)c1 [Compound (14)]
- efficacy in PI3K cellular assays (PI3K): (+++)
- PI3K cellular activity (PI3K): (+++)***

- IC50 (PI3Kα; [13]): < 500 nM
SMILES: Cc1cc(-c2sc(NC(=O)N3CCC[C@H]3C(N)=O)nc2C)cc(=O)o1 [Compound (15)]

— patent publication US12478616B2, “PI3K inhibitors and uses thereof” (Sloan-Kettering Institute for Cancer Research, priority 2018, dated 2025)
